One data set deals with T1, GABAA α3β1γ2 (Homo sapiens, UniProt P18505+P34903).
T1 construct: host or cells: HEK 293
Kind of data set: FLIPR functional receptor assay, GABAA α3β1γ2. As to conditions: agonist mode; top test concentration 1 mM. The class given is cell-based. On the procedure: (§1) Receptor functional & binding assays
(§2) Functional assays of all GABAA, NMDA (GluN2A–GluN2D) and AMPA (GluA2) receptor subunits were performed by SB Drug Discovery as a part of their CNS discovery panel using FLIPR technology. Briefly, receptor-expressing HEK 293 cell lines were incubated in a red membrane potential dye in HEPES:HBSS pH 7.4 buffer and the fluorescence (λex: 488, λex: 510–570) was monitored over time as the test compounds and/or reference compounds were added to the solution. In agonist assay, only test compounds were added. In positive allosteric modulator assay, cells were preincubated with test compounds and then low concentration (approximately EC20) of an appropriate agonist was added. In antagonist assay, cells were preincubated with test compounds and then high concentration (approximately EC80) of an appropriate agonist was added. For GABAA assays, GABA was used as the agonist, picrotoxin was used as the reference antagonist and allopregnanolone was used as the reference positive allosteric modulator (PAM). For NMDA assays, a mixture of glutamate, glycine and CaCl2 was used as the agonist, MK801 was the reference antagonist and pregnenolone sulfate or GNE 9278 were used as reference PAMs. […] All compounds were tested at 7 concentration points in triplicate and EC50/IC50 was determined where applicable. […]

A further data set has as its target T2, GABAA α3β2γ2 (Homo sapiens, UniProt P34903+P47870).
T2 construct: host or cells: HEK 293
Nature of the data set: FLIPR functional receptor assay, GABAA α3β2γ2. The class given is cell-based. The settings on record: agonist mode; top test concentration 1 mM. The procedure: as §1, §2

Another data set concerns the target T3, GABAA α4β3γ2 (Homo sapiens, UniProt P28472+P48169).
T3 construct: host or cells: HEK 293
Kind of data set: FLIPR functional receptor assay, GABAA α4β3γ2. The class given is cell-based. As to conditions: agonist mode; top test concentration 1 mM. On the procedure: intensity and lower number of tone and shock (2x) pairings to create a greater opportunity to observe pharmacologic activity.
as §1
as §2, with “(PAM).” for “(PAM). For NMDA assays, a mixture of glutamate, glycine and CaCl2 was used as the agonist, MK801 was the reference antagonist and pregnenolone sulfate or GNE 9278 were used as reference PAMs.”

The subject of the next data set is C57Bl/6 mice. The class given is in vivo. As to conditions: for Distance moved in the novel cage: single dose 100, 300, or 900 mg/kg IP, dose- and time-dependent, P < 0.001. The procedure: See Supplementary Methods for details.
The lysate was centrifuged (2,500g for 15 min at 4 °C) and the supernatant was assayed using Pierce BCA Protein Assay Kit (23225) using BioTek Epoch plate spectrophotometer by recording absorbance at 562 nm.
Two or three 10 μL aliquots of the homogenate were transferred to a 96 well plate and extracted with 190 μL of 60% acetonitrile in water containing 10 μM GABA-d6 or 10 μM Glu-d5 and Gln-d5 as internal standards. 40 μL aliquots of the extracts were then diluted with 120 μL of acetonitrile and prepared for LC-MS/MS analysis. Brain and serum half-lives were calculated using the ‘PKNCA’ package for R. Endogenous levels of Glu, Gln and GABA were determined in the brains of mice used in the pharmacokinetics experiment. MRM transitions specific for Glu, Gln and GABA were monitored simultaneously.
In vivo animal studies; Maximum Tolerated Dose (MTD) and behavioral studies […]
000664) were group-housed in a Stanford University animal facility with 12:12 hour light/dark cycle ([…]) and had free access to water and food. All behavioral tests were conducted during the animal dark-cycle. […]
Novel Cage Observation: The mouse was dosed and immediately placed in the center of a clean, Innovive disposable rat cage with bedding (dimensions: 17"L x 13.4"W x 7.8"H) and allowed to move freely while being tracked automatically. Mice were monitored with Ethovision XT tracking software for the distance moved and average velocity during the 60-minute trial. […]
Hot plate test: Hot Plate apparatus (IITC Inc. Model 39) was set to 55°C± 0.2. […] Latency time was recorded when hind paw licking or jumping off first occurred.
SHIRPA: The SHIRPA preliminary screen designed by Rogers et al. (1997) was modified and used to assess the general health and behavioral traits of the mice for the initial five minutes after drug administration. […] The test began by placing the mouse in the clear plastic viewing jar for 60 seconds, and the behavioral parameters were monitored and recorded. […]
Behavioral parameters monitored were according to Portmann et al. (2014). […]

Experimental findings from article PMC8047011, “Enantiomers of 2-methylglutamate and 2-methylglutamine selectively impact mouse brain metabolism and behavior” (Scientific Reports, 2021) are described below.

As a reminder, the EC50 is the midpoint of the concentration-response curve. Read a low EC50 as a more potent agent.

T1 sequence (P34903 29-492): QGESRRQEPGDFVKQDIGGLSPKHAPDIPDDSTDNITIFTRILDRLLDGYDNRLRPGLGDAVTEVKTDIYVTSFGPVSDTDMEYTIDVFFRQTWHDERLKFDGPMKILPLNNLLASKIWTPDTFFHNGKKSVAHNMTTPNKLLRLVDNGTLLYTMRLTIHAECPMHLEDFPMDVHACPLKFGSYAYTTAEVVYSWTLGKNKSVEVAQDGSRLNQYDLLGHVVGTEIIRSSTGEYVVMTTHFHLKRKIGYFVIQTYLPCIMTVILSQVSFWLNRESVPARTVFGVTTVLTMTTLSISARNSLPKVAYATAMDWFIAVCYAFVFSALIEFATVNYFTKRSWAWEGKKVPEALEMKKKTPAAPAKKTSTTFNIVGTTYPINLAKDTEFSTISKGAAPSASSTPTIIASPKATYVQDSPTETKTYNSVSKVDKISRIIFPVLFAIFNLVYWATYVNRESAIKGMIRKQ
T1 sequence (P18505 26-474): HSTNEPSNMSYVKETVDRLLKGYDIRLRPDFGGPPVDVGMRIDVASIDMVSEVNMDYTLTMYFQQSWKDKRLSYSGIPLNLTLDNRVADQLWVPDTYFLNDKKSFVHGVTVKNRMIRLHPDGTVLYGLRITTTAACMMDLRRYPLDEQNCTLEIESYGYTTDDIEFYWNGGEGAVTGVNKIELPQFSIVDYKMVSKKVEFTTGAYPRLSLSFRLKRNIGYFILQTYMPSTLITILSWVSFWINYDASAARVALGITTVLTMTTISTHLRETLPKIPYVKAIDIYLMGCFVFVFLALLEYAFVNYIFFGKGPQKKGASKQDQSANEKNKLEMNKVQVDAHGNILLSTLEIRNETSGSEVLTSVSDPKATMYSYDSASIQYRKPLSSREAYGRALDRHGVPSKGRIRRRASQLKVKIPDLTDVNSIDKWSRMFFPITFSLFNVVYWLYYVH
T1 sequence (P18507 40-475 partner): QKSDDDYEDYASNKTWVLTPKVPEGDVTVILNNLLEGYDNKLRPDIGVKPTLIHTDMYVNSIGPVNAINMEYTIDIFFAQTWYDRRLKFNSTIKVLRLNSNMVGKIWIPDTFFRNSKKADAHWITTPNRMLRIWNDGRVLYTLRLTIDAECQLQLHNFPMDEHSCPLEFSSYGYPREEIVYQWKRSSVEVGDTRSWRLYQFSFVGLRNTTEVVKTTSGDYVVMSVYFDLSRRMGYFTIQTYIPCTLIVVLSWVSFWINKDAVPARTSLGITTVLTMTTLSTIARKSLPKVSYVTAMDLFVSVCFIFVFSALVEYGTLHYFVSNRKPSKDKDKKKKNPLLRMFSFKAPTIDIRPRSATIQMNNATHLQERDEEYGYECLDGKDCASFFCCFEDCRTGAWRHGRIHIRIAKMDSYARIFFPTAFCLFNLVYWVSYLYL
T2 sequence (P34903 29-492): as the sequence (P34903 29-492) above
T2 sequence (P47870 25-512 limits assumed): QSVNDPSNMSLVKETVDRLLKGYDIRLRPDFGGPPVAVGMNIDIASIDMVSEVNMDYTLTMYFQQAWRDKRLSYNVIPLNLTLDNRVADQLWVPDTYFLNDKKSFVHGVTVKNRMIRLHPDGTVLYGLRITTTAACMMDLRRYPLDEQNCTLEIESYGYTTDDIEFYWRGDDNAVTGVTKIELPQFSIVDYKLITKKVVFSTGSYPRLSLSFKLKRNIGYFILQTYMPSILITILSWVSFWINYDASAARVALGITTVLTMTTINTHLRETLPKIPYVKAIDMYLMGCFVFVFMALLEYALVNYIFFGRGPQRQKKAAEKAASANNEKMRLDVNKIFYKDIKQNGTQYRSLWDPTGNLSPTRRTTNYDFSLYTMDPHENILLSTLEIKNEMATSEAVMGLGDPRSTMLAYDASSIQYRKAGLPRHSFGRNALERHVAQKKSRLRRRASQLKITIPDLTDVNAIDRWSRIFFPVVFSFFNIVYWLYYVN
T2 sequence (P18507 40-475 partner): as the sequence (P18507 40-475 partner) above
T3 sequence (P48169 36-554): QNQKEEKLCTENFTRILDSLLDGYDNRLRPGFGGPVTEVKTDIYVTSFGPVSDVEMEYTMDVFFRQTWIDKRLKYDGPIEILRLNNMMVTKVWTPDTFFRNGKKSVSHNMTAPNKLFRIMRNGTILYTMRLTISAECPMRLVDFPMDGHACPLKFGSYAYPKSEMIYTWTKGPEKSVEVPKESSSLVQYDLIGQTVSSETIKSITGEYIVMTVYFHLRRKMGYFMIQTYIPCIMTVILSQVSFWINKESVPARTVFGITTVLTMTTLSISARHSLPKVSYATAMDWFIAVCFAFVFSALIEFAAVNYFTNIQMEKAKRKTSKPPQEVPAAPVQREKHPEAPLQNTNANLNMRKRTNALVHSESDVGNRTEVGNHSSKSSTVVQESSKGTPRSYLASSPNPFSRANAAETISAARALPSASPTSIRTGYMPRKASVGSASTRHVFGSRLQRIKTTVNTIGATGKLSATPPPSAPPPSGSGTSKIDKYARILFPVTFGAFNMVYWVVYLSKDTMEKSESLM
T3 sequence (P28472 26-473): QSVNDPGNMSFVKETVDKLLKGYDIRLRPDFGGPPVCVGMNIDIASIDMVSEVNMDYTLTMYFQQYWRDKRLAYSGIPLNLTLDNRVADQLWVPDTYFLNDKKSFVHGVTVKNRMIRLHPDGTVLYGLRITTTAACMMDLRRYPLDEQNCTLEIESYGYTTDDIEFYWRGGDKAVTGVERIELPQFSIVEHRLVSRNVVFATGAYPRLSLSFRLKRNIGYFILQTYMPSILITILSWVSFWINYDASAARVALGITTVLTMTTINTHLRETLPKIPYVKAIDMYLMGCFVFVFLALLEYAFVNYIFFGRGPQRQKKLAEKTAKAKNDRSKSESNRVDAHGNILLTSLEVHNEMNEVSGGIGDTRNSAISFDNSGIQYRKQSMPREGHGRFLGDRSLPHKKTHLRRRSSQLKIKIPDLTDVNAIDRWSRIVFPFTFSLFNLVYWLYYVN
T3 sequence (P18507 40-475 partner): as the sequence (P18507 40-475 partner) above

Consider `C[C@@](N)(CCC(=O)O)C(=O)O` [(R)-2MeGlu, (R)-2-methylglutamic acid], for which the 50% effective concentration (EC50) is 742 µM at GABAA α3β1γ2, above 1000 µM on GABAA α3β2γ2 and above 1000 µM at GABAA α4β3γ2. The “Survival after single dose” value in the data set with C57Bl/6 mice (male, C57Bl/6, mouse, in vivo) is “Only one mouse died 10 days after 900 mg/kg”. In the data set with C57Bl/6 mice, the “Distance moved in the novel cage” value is “significantly decreased”.
In the case of `C[C@](N)(CCC(=O)O)C(=O)O` [(S)-2MeGlu, (S)-2-methylglutamic acid], the results for the EC50 at GABAA α3β1γ2, on GABAA α3β2γ2 and at GABAA α4β3γ2 were 782 µM, 961 µM and above 1000 µM, respectively. Further, the “Distance moved in the novel cage” value in the data set on C57Bl/6 mice is reported as “significantly decreased”.
